Reference: ChEMBL document CHEMBL5584239, “Discovery of novel quinoline scaffold selective estrogen receptor degraders (SERDs) for treatment of ER positive breast cancer with enhanced antiproliferative bioactivity through immunogenic cell death (ICD) effects” (Eur J Med Chem, 2024)
The source made the active and inactive calls. The rule behind the calls is not given here.

How the values were obtained:
[1] = system: Ishikawa; assay: Antiproliferative activity against human Ishikawa cells at 20 uM incubated for 3 days by MTT assay relative to control; type: functional; conditions: 72 h, time 3 day
[2] = system: MCF7; assay: Antiproliferative activity against human MCF7 cells incubated for 5 days by MTT assay; type: functional, cell-based; conditions: MCF7, 120 h
[3] = system: MCF7; assay: Induction of ROS production in human MCF7 cells incubated for 3 to 24 hrs by immunofluorescence analysis; type: functional, cell-based; conditions: time 3-24 hrs
[4] = system: Uterus; assay: Effect on immature Sprague-Dawley rat uterus assessed as reduction in uterine wet weight at 60 mg/kg, po qd for 2 days by H and E staining based analysis; type: functional, organism-based; conditions: time 2.0 day
[5] = system: MCF7; assay: Induction of cell cycle arrest at G0/G1 phase in human MCF7 cells at 10 uM incubated for 24 hrs by PI/RNase staining based flow cytometry (reference value: 53.5 +/- 1.96 %); type: functional
[6] = target: T1, Estrogen receptor (Homo sapiens) (UniProt P03372); assay: Induction of estrogen receptor degradation in estradiol-stimulated human MCF7 cells assessed as decrease in PGR mRNA level incubated for 24 hrs by RT-qPCR analysis; type: cell-based; conditions: dose 1-10 µM
T1 sequence (whole entry): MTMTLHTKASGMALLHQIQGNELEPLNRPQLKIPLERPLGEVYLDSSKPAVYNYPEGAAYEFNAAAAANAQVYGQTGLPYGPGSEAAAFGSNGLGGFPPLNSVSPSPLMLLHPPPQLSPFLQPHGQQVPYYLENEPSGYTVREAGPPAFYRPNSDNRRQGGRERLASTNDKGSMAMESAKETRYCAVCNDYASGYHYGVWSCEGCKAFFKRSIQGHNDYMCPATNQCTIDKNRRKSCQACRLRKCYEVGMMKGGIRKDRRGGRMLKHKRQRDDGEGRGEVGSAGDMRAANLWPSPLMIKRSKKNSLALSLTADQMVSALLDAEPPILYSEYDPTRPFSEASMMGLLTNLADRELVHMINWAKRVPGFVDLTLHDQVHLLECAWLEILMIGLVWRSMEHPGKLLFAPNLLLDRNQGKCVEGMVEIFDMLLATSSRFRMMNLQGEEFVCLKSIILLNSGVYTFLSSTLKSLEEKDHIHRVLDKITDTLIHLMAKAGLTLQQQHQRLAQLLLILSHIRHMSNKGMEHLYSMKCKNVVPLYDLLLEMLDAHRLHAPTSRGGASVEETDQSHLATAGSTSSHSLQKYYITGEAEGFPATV

[7] = system: MCF7; assay: Induction of endoplasmic reticulum stress effect in human MCF7 cells assessed as change in calnexin level at 10 uM incubated for 24 hrs by immunofluorescence based analysis; type: functional, cell-based
[8] = Toxicity in nude mouse model xenografted with human MCF7 cells assessed as morphological change in spleen at 60 mg/kg, po administered daily via gavage for 30 days by H and E staining based analysis; type: organism-based; conditions: in vivo, 720 h, time 30 day
[9] = Toxicity in nude mouse model xenografted with human MCF7 cells assessed as morphological change in heart at 60 mg/kg, po administered daily via gavage for 30 days by H and E staining based analysis; type: organism-based; conditions: in vivo, 720 h, time 30 day
[10] = target: T1, Estrogen receptor (Homo sapiens); assay: Induction of estrogen receptor degradation in human MCF7 cells expressing ERE-luciferase at 10 uM incubated for 24 hrs by luminescence based analysis; type: cell-based
[11] = system: MCF7; assay: Induction of endoplasmic reticulum stress effect in human MCF7 cells assessed as change in GRP78 level at 10 uM incubated for 3 to 24 hrs by Western blot analysis; type: functional, cell-based; conditions: time 3-24 hrs
[12] = system: MCF7; assay: Induction of immunogenic cell death in human MCF7 cells assessed as HMGB1 release from nucleus at 10 uM by fluorescence microscopy; type: functional, cell-based
[13] = system: MCF7; assay: Antitumor activity against human MCF7 cells xenografted in nude mouse model assessed as tumor growth inhibition at 60 mg/kg, po administered daily via gavage for 30 days; type: functional, organism-based; conditions: time 30.0 day
[14] = target: T1, Estrogen receptor (Homo sapiens); assay: Induction of estrogen receptor degradation in estradiol-stimulated human MCF7 cells assessed as decrease in TFF1 mRNA level incubated for 24 hrs by RT-qPCR analysis; type: cell-based; conditions: dose 1-10 µM
[15] = system: MCF7; assay: Induction of endoplasmic reticulum stress effect in human MCF7 cells assessed as change in pEIF-2alpha level at 10 uM incubated for 3 to 24 hrs by Western blot analysis; type: functional, cell-based; conditions: time 3-24 hrs
[16] = target: T1, Estrogen receptor (Homo sapiens); assay: Induction of estrogen receptor degradation in estradiol-stimulated human MCF7 cells assessed as decrease in GREB1 mRNA level incubated for 24 hrs by RT-qPCR analysis; type: cell-based; conditions: dose 1-10 µM
[17] = Toxicity in nude mouse model xenografted with human MCF7 cells assessed as morphological change in kidney at 60 mg/kg, po administered daily via gavage for 30 days by H and E staining based analysis; type: organism-based; conditions: in vivo, 720 h, time 30 day
[18] = Toxicity in nude mouse model xenografted with human MCF7 cells assessed as body weight loss at 60 mg/kg, po administered daily via gavage for 30 days; type: organism-based; conditions: in vivo, 720 h, time 30 day
[19] = target: T1, Estrogen receptor (Homo sapiens); assay: Induction of estrogen receptor degradation in human MCF7 cells at 10 uM by fluorescence microscopy; type: cell-based
[20] = system: MCF7; assay: Induction of endoplasmic reticulum stress effect in human MCF7 cells assessed as change in ATF4 level at 10 uM incubated for 3 to 24 hrs by Western blot analysis; type: functional, cell-based; conditions: time 3-24 hrs
[21] = target: T1, Estrogen receptor (Homo sapiens); assay: Induction of estrogen receptor degradation in MG-132-treated human MCF7 cells at 10 uM incubated for 4 to 6 hrs by Western blot analysis; type: cell-based; conditions: time 4-6 hrs
[22] = system: MCF7; assay: Induction of ROS production in human MCF7 cells measured after 6 to 24 hrs by flow cytometry; type: functional, cell-based; conditions: time 6-24 hrs
[23] = system: MCF7; assay: Induction of immunogenic cell death in human MCF7 cells assessed as ATP release […] at 10 uM; type: functional, cell-based
[24] = target: T1, Estrogen receptor (Homo sapiens); assay: Induction of estrogen receptor degradation in human MCF7 cells incubated for 24 hrs by Western blot analysis; type: cell-based; conditions: dose 0.001-10 µM
[25] = system: MCF7; assay: Induction of immunogenic cell death in human MCF7 cells assessed as HMGB1 release from nucleus at 10 uM by Western blot analysis; type: functional, cell-based
[26] = system: MCF7; assay: Induction of immunogenic cell death in human MCF7 cells assessed as CRT translocation at 10 uM by FITC staining based flow cytometry; type: functional
[27] = system: MCF7; assay: Induction of immunogenic cell death in human MCF7 cells assessed as HSP90 exposure at 10 uM by Western blot analysis; type: functional, cell-based
[28] = system: MCF7; assay: Antitumor activity against human MCF7 cells xenografted in nude mouse model assessed as reduction in PR level at 60 mg/kg, po administered daily via gavage for 30 days in presence of ribociclib by IHC analysis; type: functional, organism-based; conditions: time 30.0 day
[29] = system: MCF7; assay: Antitumor activity against human MCF7 cells xenografted in nude mouse model assessed as reduction in Ki67 level at 60 mg/kg, po administered daily via gavage for 30 days in presence of ribociclib by IHC analysis; type: functional, organism-based; conditions: time 30.0 day
[30] = system: MCF7; assay: Induction of immunogenic cell death in human MCF7 cells assessed as HMGB1 release from nucleus at 10 uM by FITC staining based flow cytometry; type: functional
[31] = system: MCF7; assay: Synergistic antiproliferative activity against human MCF7 cells at 0.1 to 10000 nM incubated for 5 days in presence of Ribociclib by MTT assay; type: functional, cell-based; conditions: dose 0.1-10000 nM, time 5.0 day
[32] = system: MCF7; assay: Antitumor activity against human MCF7 cells xenografted in nude mouse model at 60 mg/kg, po administered daily via gavage for 30 days in presence of ribociclib; type: functional, organism-based; conditions: time 30.0 day
[33] = Toxicity in nude mouse model xenografted with human MCF7 cells assessed as morphological change in liver at 60 mg/kg, po administered daily via gavage for 30 days by H and E staining based analysis; type: organism-based; conditions: in vivo, 720 h, time 30 day
[34] = system: MCF7; assay: Induction of endoplasmic reticulum stress effect in human MCF7 cells assessed as change in CHOP level at 10 uM incubated for 24 hrs by immunofluorescence based analysis; type: functional, cell-based
[35] = system: MCF7; assay: Antitumor activity against human MCF7 cells xenografted in nude mouse model assessed as reduction in ER level at 60 mg/kg, po administered daily via gavage for 30 days in presence of ribociclib by IHC analysis; type: functional, organism-based; conditions: time 30.0 day
[36] = system: MCF7; assay: Induction of endoplasmic reticulum stress effect in human MCF7 cells assessed as change in CHOP level at 10 uM incubated for 3 to 24 hrs by Western blot analysis; type: functional, cell-based; conditions: time 3-24 hrs
[37] = system: MCF7; assay: Induction of endoplasmic reticulum stress effect in human MCF7 cells assessed as change in EIF-2alpha level at 10 uM incubated for 3 to 24 hrs by Western blot analysis; type: functional, cell-based; conditions: time 3-24 hrs
[38] = system: MCF7; assay: Induction of immunogenic cell death in human MCF7 cells assessed as CRT translocation at 10 uM by fluorescence microscopy; type: functional, cell-based
[39] = system: MCF7; assay: Induction of immunogenic cell death in human MCF7 cells assessed as CRT translocation at 10 uM by Western blot analysis; type: functional, cell-based
[40] = system: MCF7; assay: Induction of endoplasmic reticulum stress effect in human MCF7 cells assessed as change in calnexin level at 10 uM incubated for 3 to 24 hrs by Western blot analysis; type: functional, cell-based; conditions: time 3-24 hrs

Compound: O=C(O)/C=C/c1ccc(Oc2c(C(=O)c3cccc(F)c3)cnc3cc(O)ccc23)cc1
- inhibition at 20 µM [1]: 26.4%
- IC50 [2]: 2420 nM

Compound: Cc1cc(F)cc(C)c1C(=O)c1cnc2cc(O)ccc2c1Oc1ccc(/C=C/C(=O)O)cc1
- inhibition at 20 µM [1]: 35.8%
- IC50 [2]: 410 nM

Compound: Cc1cccc(C)c1C(=O)c1cnc2cc(O)ccc2c1Oc1ccc(/C=C/C(=O)O)cc1
- inhibition at 20 µM [1]: 23.1%
- IC50 [2]: 930 nM

Compound: CCc1cc(/C=C/C(=O)O)ccc1Oc1c(C(=O)c2ccccc2CC)cnc2cc(O)ccc12
- Activity [3]: inactive
- Activity [4]: inactive
- Activity [5]: 64%
- Activity [6]: Dose-Dependent Effect
- Activity [7]: Active
- Activity [8]: Non-Toxic
- Activity [9]: Non-Toxic
- Activity [10]: Active
- Activity [11]: Active
- Activity [12]: Active
- inhibition [13]: Active
- Activity [14]: Dose-Dependent Effect
- Activity [15]: Active
- Activity [16]: Dose-Dependent Effect
- Activity [17]: Non-Toxic
- inhibition at 20 µM [1]: 13.2%
- Activity [18]: Non-Toxic
- Activity [19]: Active
- Activity [20]: Active
- Activity [21]: inactive
- Activity [22]: inactive
- Activity [23]: Active
- Activity [24]: Dose-Dependent Effect
- Activity [25]: Active
- Activity [26]: Active
- Activity [27]: Active
- Activity [28]: Active
- Activity [29]: Active
- Activity [30]: Active
- Activity [31]: Active
- Activity [32]: Active
- Activity [33]: Non-Toxic
- Activity [34]: Active
- Activity [35]: Active
- Activity [36]: Active
- IC50 [2]: 510 nM
- Activity [37]: Active
- Activity [38]: Active
- Activity [39]: Active
- Activity [40]: Active

Compound: COc1ccc(C(=O)c2cnc3cc(O)ccc3c2Oc2ccc(/C=C/C(=O)O)cc2)cc1
- inhibition at 20 µM [1]: 61.2%
- IC50 [2]: 3090 nM

Compound: CCc1ccccc1C(=O)c1cnc2cc(O)ccc2c1Oc1ccc(/C=C/C(=O)O)cc1F
- inhibition at 20 µM [1]: 4.11%
- IC50 [2]: 670 nM

Compound: CCc1ccccc1C(=O)c1cnc2cc(O)ccc2c1Oc1c(C)cc(/C=C/C(=O)O)cc1C
- inhibition at 20 µM [1]: 11.5%

Compound: Cc1ccc(C(=O)c2cnc3cc(O)ccc3c2Oc2ccc(/C=C/C(=O)O)cc2)c(C)c1
- inhibition at 20 µM [1]: -0.04%
- IC50 [2]: 450 nM

Compound: CCc1ccccc1C(=O)c1cnc2cc(O)ccc2c1Oc1ccc(/C=C/C(=O)O)cc1C
- Activity [6]: Dose-Dependent Effect
- Activity [14]: Dose-Dependent Effect
- Activity [16]: Dose-Dependent Effect
- inhibition at 20 µM [1]: -6.14%
- IC50 [2]: 450 nM

Compound: O=C(O)/C=C/c1ccc(Oc2c(C(=O)c3ccc4occc4c3)cnc3cc(O)ccc23)cc1
- inhibition at 20 µM [1]: 13.3%
- IC50 [2]: 1470 nM

Compound: O=C(O)/C=C/c1ccc(Oc2c(C(=O)c3ccc(C(F)(F)F)cc3)cnc3cc(O)ccc23)cc1
- inhibition at 20 µM [1]: -4.35%
- IC50 [2]: 690 nM

Compound: O=C(O)/C=C/c1ccc(Oc2c(C(=O)c3ccccc3C(F)(F)F)cnc3cc(O)ccc23)cc1
- inhibition at 20 µM [1]: 27.5%
- IC50 [2]: 370 nM

Compound: O=C(O)/C=C/c1ccc(Oc2c(C(=O)c3cccs3)cnc3cc(O)ccc23)cc1
- inhibition at 20 µM [1]: 10.4%
- IC50 [2]: 7170 nM
